# Measurements reported in ChEMBL document CHEMBL4334464, “From Phenylthiazoles to Phenylpyrazoles: Broadening the Antibacterial Spectrum toward Carbapenem-Resistant Bacteria” (J Med Chem, 2019).
# Active and inactive are the calls of the source. The calls are words filed in the database; no cut-off is given here.
# Columns and labels:
# Staphylococcus aureus [1] = test: Antibacterial activity against Methicillin-sensitive Staphylococcus aureus ATCC 6538 clinical isolates after 18 to 20 hrs in aerobic condition by CLSI protocol based broth microdilution assay; assay type: functional
# Staphylococcus aureus [2] = test: Antibacterial activity against Methicillin-resistant Staphylococcus aureus NRS123-USA400 clinical isolates after 18 to 20 hrs in aerobic condition by CLSI protocol based broth microdilution assay; assay type: functional
# Staphylococcus aureus [3] = test: Antibacterial activity against Methicillin-resistant Staphylococcus aureus NRS385-USA500 clinical isolates after 18 to 20 hrs in aerobic condition by CLSI protocol based broth microdilution assay; assay type: functional
# Staphylococcus aureus [4] = test: Antibacterial activity against vancomycin-resistant Staphylococcus aureus isolate 10 after 18 to 20 hrs in aerobic condition by CLSI-based broth microdilution assay; assay type: functional
# Staphylococcus aureus [5] = test: Antibacterial activity against vancomycin-resistant Staphylococcus aureus isolate 12 after 18 to 20 hrs in aerobic condition by CLSI-based broth microdilution assay; assay type: functional
# Clostridioides difficile = test: Antibacterial activity against Clostridium difficile ATCC BAA 1870 incubated for 48 hrs in anaerobic condition by CLSI-based broth microdilution assay; assay type: functional; details: ATCC BAA 1870, 48 h
# Acinetobacter baumannii [6] = test: Antibacterial activity against Acinetobacter baumannii ATCC 19606 clinical isolates after 18 to 20 hrs in aerobic condition by CLSI-based broth microdilution assay; assay type: functional; details: ATCC 19606 = CIP 70.34 = JCM 6841
# Acinetobacter baumannii [7] = test: Antibacterial activity against Acinetobacter baumannii NR 17786 clinical isolates after 18 to 20 hrs in aerobic condition by CLSI-based broth microdilution assay; assay type: functional
# Acinetobacter baumannii [8] = test: Antibacterial activity against Acinetobacter baumannii NR 17785 clinical isolates after 18 to 20 hrs in aerobic condition by CLSI-based broth microdilution assay; assay type: functional
# [9] = Antibacterial activity against Enterobacter cloacae subsp. cloacae ATCC BAA-1143 clinical isolates after 18 to 20 hrs in aerobic condition by CLSI-based broth microdilution assay; assay type: functional
# Klebsiella pneumoniae [10] = test: Antibacterial activity against Klebsiella pneumoniae BAA-1706 clinical isolates after 18 to 20 hrs in aerobic condition by CLSI-based broth microdilution assay; assay type: functional
# Klebsiella pneumoniae [11] = test: Antibacterial activity against Klebsiella pneumoniae BAA-1144 clinical isolates after 18 to 20 hrs in aerobic condition by CLSI-based broth microdilution assay; assay type: functional
# Salmonella typhimurium = test: Antibacterial activity against Salmonella typhimurium ATCC 700720 after 18 to 20 hrs in aerobic condition by CLSI-based broth microdilution assay; assay type: functional, Salmonella enterica subsp. enterica serovar Typhimurium; details: Salmonella enterica
# Klebsiella pneumoniae [12] = test: Antibacterial activity against carbapenem-resistant Klebsiella pneumoniae ATCC BAA-2146 clinical isolates after 18 to 20 hrs in aerobic condition by CLSI-based broth microdilution assay; assay type: functional
# Acinetobacter baumannii [13] = test: Antibacterial activity against carbapenem-resistant Acinetobacter baumannii ATCC BAA 1605 clinical isolates after 18 to 20 hrs in aerobic condition by CLSI-based broth microdilution assay; assay type: functional
# Pseudomonas aeruginosa [14] = test: Antibacterial activity against carbapenem-resistant Pseudomonas aeruginosa ATCC 1744 clinical isolates after 18 to 20 hrs in aerobic condition by CLSI-based broth microdilution assay; assay type: functional
# Staphylococcus aureus [15] = test: Antibiofilm activity against methicillin-resistant Staphylococcus aureus NRS384-USA300 clinical isolates assessed as inhibition of biofilm formation at 0.5 times MIC incubated for 24 hrs by crystal violet staining based spectrophotometric method relative to control; assay type: functional
# [16] = molecular target: T1, Ditrans,polycis-undecaprenyl-diphosphate synthase ((2E,6E)-farnesyl-diphosphate specific) (Escherichia coli (strain K12)) (UniProt P60472); test: Inhibition of Escherichia coli UPPS using FPP/IPP as substrate preincubated for 30 mins followed by substrates addition and measured after 30 mins by malachite green reagent based assay
# T1 sequence (whole entry): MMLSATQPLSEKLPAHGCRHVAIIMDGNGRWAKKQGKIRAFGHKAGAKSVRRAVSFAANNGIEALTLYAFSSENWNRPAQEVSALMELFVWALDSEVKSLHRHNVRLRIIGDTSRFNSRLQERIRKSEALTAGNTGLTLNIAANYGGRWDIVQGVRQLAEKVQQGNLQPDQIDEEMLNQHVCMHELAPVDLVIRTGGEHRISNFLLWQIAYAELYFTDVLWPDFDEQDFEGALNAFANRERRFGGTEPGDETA
# Staphylococcus aureus [17] = test: Ratio of MBC to MIC for Methicillin-sensitive Staphylococcus aureus ATCC 6538 clinical isolates; assay type: functional
# Staphylococcus aureus [18] = test: Ratio of MBC to MIC for Methicillin-sensitive Staphylococcus aureus NRS107 clinical isolates; assay type: functional
# Streptococcus pneumoniae = test: Ratio of MBC to MIC for […] Streptococcus pneumoniae ATCC 700677 clinical isolates; assay type: functional
# Acinetobacter baumannii [19] = test: Ratio of MBC to MIC for Acinetobacter baumannii ATCC 19606 clinical isolates; assay type: functional, ATCC 19606 = CIP 70.34 = JCM 6841
# Acinetobacter baumannii [20] = test: Ratio of MBC to MIC for Acinetobacter baumannii ATCC BAA 1141 clinical isolates; assay type: functional
# Acinetobacter baumannii [21] = test: Ratio of MBC to MIC for Acinetobacter baumannii ATCC BAA 1747 clinical isolates; assay type: functional
# Escherichia coli [22] = test: Ratio of MBC to MIC for Escherichia coli BW25113 clinical isolates; assay type: functional
# Escherichia coli [23] = test: Ratio of MBC to MIC for Escherichia coli ATCC 35150 clinical isolates; assay type: functional
# Escherichia coli [24] = test: Ratio of MBC to MIC for Escherichia coli ATCC 1411 clinical isolates; assay type: functional
# Salmonella enterica = test: Ratio of MBC to MIC for Salmonella enterica NR-170 clinical isolates; assay type: functional
# Salmonella enteritidis [25] = test: Ratio of MBC to MIC for Salmonella enteritidis ATCC 13076 clinical isolates; assay type: functional, Salmonella enterica subsp. enterica serovar Enteritidis
# Salmonella enteritidis [26] = test: Ratio of MBC to MIC for Salmonella enteritidis ATCC 14028 clinical isolates; assay type: functional, Salmonella enterica subsp. enterica serovar Enteritidis
# Pseudomonas aeruginosa [27] = test: Ratio of MBC to MIC for Pseudomonas aeruginosa ATCC 9027 clinical isolates; assay type: functional
# Pseudomonas aeruginosa [28] = test: Ratio of MBC to MIC for Pseudomonas aeruginosa ATCC 25619 clinical isolates; assay type: functional
# Pseudomonas aeruginosa [29] = test: microbe, parasite or virus in culture; details: ATCC 25619
# Description: Antibacterial activity against Pseudomonas aeruginosa ATCC 25619 clinical isolates after 18 to 20 hrs in aerobic condition by CLSI-based broth microdilution assay
SMILES,MIC (Staphylococcus aureus [1]),MIC (Staphylococcus aureus [2]),MIC (Staphylococcus aureus [3]),MIC (Staphylococcus aureus [4]),MIC (Staphylococcus aureus [5]),MIC (Clostridioides difficile),MIC (Acinetobacter baumannii [6]),MIC (Acinetobacter baumannii [7]),MIC (Acinetobacter baumannii [8]),MIC [9],MIC (Klebsiella pneumoniae [10]),MIC (Klebsiella pneumoniae [11]),MIC (Salmonella typhimurium),MIC (Klebsiella pneumoniae [12]),MIC (Acinetobacter baumannii [13]),MIC (Pseudomonas aeruginosa [14]),inhibition [16],Ratio (Staphylococcus aureus [17]),Ratio (Staphylococcus aureus [18]),Ratio (Streptococcus pneumoniae),other results
C/C(=N\NC(=N)N)c1cnn(-c2ccc(C#Cc3ccccc3)cc2)c1C,1 µg/mL,2 µg/mL,1 µg/mL,1 µg/mL,2 µg/mL,4 µg/mL,4 µg/mL,8 µg/mL,4 µg/mL,8 µg/mL,8 µg/mL,8 µg/mL,8 µg/mL,16 µg/mL,4 µg/mL,16 µg/mL,inactive,<=2,<=2,<3,inhibition (INH) (Staphylococcus aureus [15]): 50%; Ratio (Acinetobacter baumannii [19]): >=1; Ratio (Acinetobacter baumannii [20]): >=1; Ratio (Acinetobacter baumannii [21]): >=1; Ratio (Escherichia coli [22]): >=1; Ratio (Escherichia coli [23]): >=1; Ratio (Escherichia coli [24]): >=1; Ratio (Salmonella enterica): >=1; Ratio (Salmonella enteritidis [25]): >=1; Ratio (Salmonella enteritidis [26]): >=1; Ratio (Pseudomonas aeruginosa [27]): >=1; Ratio (Pseudomonas aeruginosa [28]): >=1; MIC (Pseudomonas aeruginosa [29]): 32 µg/mL
CCCCCC#Cc1ccc(-n2ncc(/C(C)=N/NC(=N)N)c2C)cc1,2 µg/mL,2 µg/mL,2 µg/mL,2 µg/mL,2 µg/mL,4 µg/mL,4 µg/mL,8 µg/mL,8 µg/mL,8 µg/mL,8 µg/mL,16 µg/mL,8 µg/mL,32 µg/mL,8 µg/mL,32 µg/mL,inactive,<=2,<=2,<3,Ratio (Acinetobacter baumannii [19]): >=1; Ratio (Acinetobacter baumannii [20]): >=1; Ratio (Acinetobacter baumannii [21]): >=1; Ratio (Escherichia coli [22]): >=1; Ratio (Escherichia coli [23]): >=1; Ratio (Escherichia coli [24]): >=1; Ratio (Salmonella enterica): >=1; Ratio (Salmonella enteritidis [25]): >=1; Ratio (Salmonella enteritidis [26]): >=1; Ratio (Pseudomonas aeruginosa [27]): >=1; Ratio (Pseudomonas aeruginosa [28]): >=1; MIC (Pseudomonas aeruginosa [29]): 32 µg/mL
CCCC#Cc1ccc(-n2ncc(/C(C)=N/NC(=N)N)c2C)cc1,2 µg/mL,2 µg/mL,2 µg/mL,2 µg/mL,2 µg/mL,8 µg/mL,8 µg/mL,16 µg/mL,8 µg/mL,16 µg/mL,8 µg/mL,16 µg/mL,16 µg/mL,32 µg/mL,16 µg/mL,32 µg/mL,inactive,<=2,<=2,<3,inhibition (INH) (Staphylococcus aureus [15]): 74%; Ratio (Acinetobacter baumannii [19]): >=1; Ratio (Acinetobacter baumannii [20]): >=1; Ratio (Acinetobacter baumannii [21]): >=1; Ratio (Escherichia coli [22]): >=1; Ratio (Escherichia coli [23]): >=1; Ratio (Escherichia coli [24]): >=1; Ratio (Salmonella enterica): >=1; Ratio (Salmonella enteritidis [25]): >=1; Ratio (Salmonella enteritidis [26]): >=1; Ratio (Pseudomonas aeruginosa [27]): >=1; Ratio (Pseudomonas aeruginosa [28]): >=1; MIC (Pseudomonas aeruginosa [29]): 16 µg/mL
